We go through four compounds from patent publication US20090214434A1, “METHOD OF DETECTING AND TREATING ALLOGENIC CELLS RESPONSIBLE FOR ENDOMETRIOSIS” (priority 2004, published 2009).

For one series, the system named is endometriomas. Put plainly: Human clinical trial: resolution or growth of endometriomas followed by monthly ultrasound under TFI chemotherapy and antioxidant counter therapy. It counts as in vivo. An excerpt:
When TFI chemotherapy is stopped to allow the thyroid a rest, we see a general improvement in iron scavenging at lower dose rates afterwards (which hints at a multi-step process that can be slowly poisoned, most probably by I^− to tri-iodide) and usually a recovery to visibility in those in-completely resolved endometriomas during this treatment hiatus. We timed this 3rd party evidence trial to happen as we approached a pre-planned thyroid rest period, taking monthly ultrasounds before to position each active endometrioma as closely as possible, and include three such rest periods, plus two thyroid examinations.
The simplest test was to gently down-regulate the CMI in a patient while that patient was still on TFI chemotherapy, and to observe what happens next. The patient then took 800 international units of vitamin E a day (as a tocopherol). […] A second antioxidant, dietary zinc (10 mg/day), was added to the regimen. Use of both antioxidants allowed us to say that this was not a special case for either antioxidant, though the cumulative effects were very obvious. Vitamin E was stopped two weeks before zinc, to provide a period of zinc only. TFI-induced resolution was still blocked.
The patient then went into their thyroid rest period, and as usual a few recently but incompletely resolved endometriomas developed, but so did two that had been thought resolved from two years ago for a total of five.

Series [1] relates to normal self-cells of the uterus. Put plainly: Transvaginal ultrasound of uterine lining / normal self-cells of the uterus, and menstrual period cycle, in the same patient. The settings on record: patient taking aspirin with TFI. The format is in vivo, human. An excerpt: In using transvaginal ultra sound, it was possible to view and compare the thickness of the uterine lining, and no abnormal change was observed despite all the activity in the peritoneal cavity.
It should be noted that use of counter chemotherapy produced no change in those similar normal self-cells of the uterus as detectable by ultrasound. All of these ultrasounds were taken at 3 to four days after the patient's periods, except the last one as they had their period cycle extended by taking aspirin.

The conditions of series [2]: Ghent et al (1993); U.S. Pat. No. 4,555,347; cited from earlier work.

For the compound `[Zn]` [zinc], the “TFI-induced resolution of endometriomas” value in the series on endometriomas (period of zinc only (vitamin E stopped two weeks before zinc), dietary zinc 10 mg/day, on TFI) is “still blocked”. As for `Cc1c(C)c2c(c(C)c1O)CC[C@@](C)(CCC[C@H](C)CCC[C@H](C)CCCC(C)C)O2` [vitamin E, alpha tocopherol], the “change in endometriomas (number and size)” value in the series with endometriomas (patient still on TFI chemotherapy, 800 international units of vitamin E a day) was “Minor change was observed, with new endometriomas developing and old ones rapidly increasing in size”. As to `CC(=O)Oc1ccccc1C(=O)O` [aspirin, acetylsalicylic acid], the period cycle entry in series [1] is “extended”.

As to `II` [TFI, thermodynamically free iodine], the “clean-up of endometrial cell debris, aberrant organ attachments, endometriomas and stratum functional cell masses” value with endometriomas (clinical tests (FIG. 2), patients, administration of iodine) is recorded as “effective”. Further, the “time for resolution of endometriomas (Stage I to Stage IV process)” value with endometriomas (otherwise takes about 15 years without TFI) was “about one or two”. For the same compound, in the series with endometriomas (use of TFI in the endometriosis patient), the pain result is listed as “relief from pain”. The “toxicity compared with other forms of iodine” value in series [2] is on record as “least toxicity of all forms of iodine”.
